{
  "source": "patent US4110368A",
  "about": "“Hydro substituted prostanoic acids and esters” (American Cyanamid Company, priority 1977, dated 1978)",
  "key": {"[1]": {"system": "ulcerogenic properties of indomethacin", "assay": "protection against indomethacin-induced ulcers (ulcer score)", "type": "in vivo, rat", "settings": "two half doses by gavage, indomethacin 20 mg./kg. s.c., ulcer scale 0-4, score 2.5 or lower = active", "description": "The compounds of this invention provide protection against the ulcerogenic properties of indomethacin. This assay was carried out in the following manner.\nRats were starved for 48 hours (water was given ad libitum). Indomethacin (20 mg./kg. of body weight) was administered by the subutaneous route and one-half the dose of the test compound was administered by gavage at the same time. After 3 hours, the second half of the test compound was administered also by Gavage. Five hours after the administration of indomethacin the animals were decapitated and the stomachs removed. The stomachs were washed with distilled water, blotted on gauze, cut along the larger curvature, and the contents rinsed with distilled water. The stomachs were spread out, pinned on a cork and visualized under magnifying glass for ulcers. The criteria for scoring of ulcers was as previously reported. [Abdel-Galil et al. Brit. J. Pharmac. Chemotherapy 33:1-14 (1968)].\n1 -- Petechial hemorrhage or pin point ulcer\n3 -- Many ulcers, a few large\n4 -- Many ulcers, mainly large\nControl animals treated with indomethacin but not test compound consistently give scores of about 3.0-3.5. Control animals treated with neither indomethacin nor test compound give scores of about 0.5-0.8. Compounds producing a score of 2.5 or lower are considered to be active."}, "[2]": {"system": "gastric acid secretion", "assay": "gastric acid secretion inhibition, modified Shay rat procedure", "type": "in vivo, rat (male, CFE strain)", "settings": "intraduodenal dose 100 mg./kg. of body weight; 3 hours; 20% or more = active", "description": "The novel compounds of the present invention are also effective inhibitors of gastric acid secretion and of ulcer development in experimental animals, and thus are potentially valuable as agents for the control of gastric acid secretion and of gastric erosion and as anti-ulcer agents. Gastric acid secretion inhibitory action is usually measured by the \"Shay rat\" procedure ^(1,2) with some modifications as follows.\nThe rats (male, CFE strain) were starved for 48 hours (water was given ad libitum) to permit evacuation of stomach contents. On the morning of the experiment, under ether anesthesia, the abdominal region was shaved and a midline incision (1-1 1/2 inch) was made with a scapel. […]\nThe abdominal cavity was exposed by cutting with scissors and the esophagus close to the stomach was clamped off with a hemostat, the stomach was removed by cutting above the hemostat (the esophagus was cut) and between the two sutures. […] The supernatant was collected, volume measured and recorded, 2 drops of a phenolphthalein indicator (1% in 95% ethanol) were added and the solution was titrated with 0.02N NaOH (or with 0.04N NaOH when large volumes of stomach contents were encountered) to pH 8.4 (because of usual coloring of the stomach contents, phenolphthalein was only used to permit visual indication that the end point was near) and the amount of acid present was calculated. […]"}, "[3]": {"settings": "total oral dose 25 mg./kg. of body weight, control 3.2"}},
  "data": [
    {"smiles": "CCCCCC(O)/C=C/[C@H]1CCC(=O)[C@@H]1CCCCCC(CC)C(=O)O", "note": "(relative stereo)", "values": [
      {"measurement": "Score, Treated", "setting": "[1]; total oral dose 50 mg./kg. of body weight, control 3.0", "result": 2.2}
    ]},
    {"smiles": "CCCCC[C@@H](O)/C=C/[C@H]1CCC(=O)[C@@H]1CCCCSCC(=O)O", "note": "(relative stereo) [9-oxo-3-thia-15-epi-hydroxy-13-trans-prostenoic acid]", "values": [
      {"measurement": "Score, Treated", "setting": "[1]; [3]", "result": 2.3}
    ]},
    {"smiles": "CCCCCC(O)/C=C/[C@H]1CCC(=O)[C@@H]1CCCCC(C)(C)CC(=O)O", "note": "(relative stereo) [9-oxo-15-hydroxy-3,3-dimethyl-13-trans-prostenoic acid]", "values": [
      {"measurement": "Percent Inhibition (gastric acid secretion)", "setting": "[2]", "result": 51, "unit": "%"}
    ]},
    {"smiles": "CCCCCC(O)/C=C\\[C@H]1CCC(=O)[C@@H]1CCCCCCC(=O)O", "note": "(relative stereo) [9-oxo-15-hydroxy-13-cis-prostenoic acid, 15-hydroxy-9-oxo-13-cis-prostenoic acid]", "values": [
      {"measurement": "Score, Treated", "setting": "[1]; total oral dose 100 mg./kg. of body weight, control 3.0", "result": 1.3}
    ]},
    {"smiles": "CCCCC(CC)C(O)/C=C/[C@H]1CCC(=O)[C@@H]1CCCCCCC(=O)O", "note": "(relative stereo) [9-oxo-15-hydroxy-16-ethyl-13-trans-prostenoic acid]", "values": [
      {"measurement": "Score, Treated", "setting": "[1]; [3]", "result": 1.7}
    ]},
    {"smiles": "CCCCCC(O)/C=C/C1CCC(=O)C1CCCCSCC(=O)O", "note": "(stereo not drawn) [9-oxo-3-thia-15-hydroxy-13-trans-prostenoic acid]", "values": [
      {"measurement": "Score, Treated", "setting": "[1]; [3]", "result": 1.8}
    ]},
    {"smiles": "CCCCCC(O)/C=C/C1CCC(=O)C1(C)CCCCCCC(=O)O", "note": "(stereo not drawn) [9-oxo-8β-methyl-15-hydroxy-13-trans-prostenoic acid]", "values": [
      {"measurement": "Score, Treated", "setting": "[1]; total oral dose 12.5 mg./kg. of body weight, control 3.0", "result": 2.0}
    ]}
  ]
}
